# Like-named read-outs stand apart in the source and are kept apart here.
# Experiments:
# p-388 leukemia cells [1] = assay: Test Example 1 (Intraperitoneal-intraperitoneal) antitumour activity, increase life span; assay type: in vivo, BDF1 mice; conditions: Mus musculus, P388, ip, 720 h
# Protocol: To BDF1 mice, p-388 leukemia cells were intraperitoneally inoculated in an amount of 1×10^6 cells/mouse. A test drug was intraperitoneally administered twice, i.e. one day and four days after the inoculation. […] The increase life span ILS (%) of each treated group was obtained with the number of survival days of mice of the control group to which a physiological saline was administered, being evaluated as 0. The drugs were dispersions obtained by adding small amounts of surfactants (e.g. Tween-80) to the test compounds.
# ILS (%)*: Increase Life Span, calculated in accordance with the following
# formula: ILS (%) = MST100, where MST is the ratio of median survival time
# of test and control animals.
# p-388 leukemia cells [2] = assay: Test Example 2 (intraperitoneal-oral) antitumour activity, increase life span; assay type: in vivo, BDF1 mice; conditions: oral drug, days 1 and 4
# Protocol: A test drug was orally administered twice i.e. one day and four days after the inoculation.
# The mixture was pulverized in a wet system by a sand mill using glass beads (80% of particles having a particle size of not larger than 2 μm). Then, 5 parts by weight of xanthane gum (2% solution) was added thereto to obtain an aqueous suspension.
# Acute toxicity, LD50 = conditions: mouse, in vivo, ip; ddY mice, intraperitoneal, Formulation Example 4
# Protocol: To ddY mice (10 animals), a drug containing one of Compound Nos. 1-4, 7, 9 and 10 of the present invention formulated in accordance with Formulation Example 4 was intraperitoneally administered, and the LD50 value was measured and found to be at least 100 mg/kg in each case, and the LD50 value of Compound No. 6 of the invention found to be at least 50 mg/kg.
# The Compound No. 2 of the present invention was preliminarily pulverized by a centrifugal pulverizer. On the other hand, 5 parts by weight of polyoxyethylene (60) hardened castor oil, 0.2 part by weight of silicone and 0.3 part by weight of a polyoxyethylene-polyoxypropylene block polymer were added to 79.5 parts by weight of a physiological saline to obtain an aqueous solution, to which 10 parts by weight of the above pulverized Compound No. 2 of the present invention was added. The mixture was pulverized in a wet system by a sand mill using glass beads (80% of particles having a particle size of not larger than 2 μm). Then, 5 parts by weight of xanthane gum (2% solution) was added thereto to obtain an aqueous suspension.
# [3] = read-out: ILS (increase life span)
# [4] = i.p. drug, days 1 and 4, 100 mg/kg/day, read-out: ILS (increase life span)
smiles,measurement,setting,value
"O=c1[nH]cc(F)c(=O)[nH]1 [5-Fluorouracil, reference compound]",ILS at 60 mg/kg/day,p-388 leukemia cells [1]; [3],85%
"O=C(NC(=O)c1ccccc1Cl)Nc1ccc(Oc2ncc(Cl)cn2)c(Cl)c1 [Comparative Compound No. 1, N--(2chlorobenzoyl)-N'--[3chloro-4-(5-chloro-2-pyrimidinyloxy)phenyl]urea]",ILS (increase life span),p-388 leukemia cells [2]; 800 mg/kg/day,11%
same,ILS (increase life span),p-388 leukemia cells [2]; 1600 mg/kg/day,24%
same,ILS at 100 mg/kg/day,p-388 leukemia cells [1]; [4],33%
"O=C(NC(=O)c1ccccc1Br)Nc1ccc(Oc2ncc(I)cn2)c(Cl)c1 [Comparative Compound No. 2, N--(2bromobenzoyl)-N'--[3chloro-4-(5-iodo-2-pyrimidinyloxy)phenyl]urea]",ILS (increase life span),p-388 leukemia cells [2]; 400 mg/kg/day,4%
same,ILS (increase life span),p-388 leukemia cells [2]; 800 mg/kg/day,2%
same,ILS at 100 mg/kg/day,p-388 leukemia cells [1]; [4],65%
"O=C(NC(=O)c1ccccc1Cl)Nc1ccc(Oc2ccc(Cl)nn2)c(Cl)c1 [Comparative Compound No. 3, N--(2chlorobenzoyl)-N'--[3chloro-4-(6-chloro-3-pyridazinyloxy)phenyl]urea, reference compound]",ILS at 200 mg/kg/day,"p-388 leukemia cells [1]; i.p. drug, days 1 and 4",24%
"O=C(NC(=O)c1ccccc1Cl)Nc1ccc(Oc2ccc(Br)nn2)c(Cl)c1 [Comparative Compound No. 4, N--(2chlorobenzoyl)-N'--[4(6-bromo-3-pyridazinyloxy)-3-chlorophenyl]urea, reference compound]",ILS at 100 mg/kg/day,p-388 leukemia cells [1]; [4],36%
"O=C(NC(=O)c1ccccc1[N+](=O)[O-])Nc1ccc(Oc2ccc(C(F)(F)F)cn2)c(Cl)c1 [Comparative Compound No. 5, reference compound]",ILS at 100 mg/kg/day,p-388 leukemia cells [1]; [4],70%
"O=C(NC(=O)c1ccccc1Cl)Nc1ccc(Oc2ccc(Br)cn2)c(Cl)c1 [Comparative Compound No. 6, N--(2chlorobenzoyl)-N'--[4(5-bromo-2-pyridyl-oxy)-3-chlorophenyl]urea, reference compound]",ILS at 200 mg/kg/day,"p-388 leukemia cells [1]; i.p. drug, days 1 and 4",50%
"O=C(NC(=O)c1ccccc1[N+](=O)[O-])Nc1ccc(Oc2ncc(I)cn2)c([N+](=O)[O-])c1 [Compound No. 1, N-(2-nitrobenzoyl)-N'-[4-(5-iodo-2-pyrimidinyloxy)-3-nitrophenyl]urea]",LD50,"Acute toxicity, LD50",≥ 100 mg/kg
same,ILS at 50 mg/kg/day,p-388 leukemia cells [1]; [3],111%
"O=C(NC(=O)c1ccccc1[N+](=O)[O-])Nc1ccc(Oc2ncc(Cl)cn2)c([N+](=O)[O-])c1 [Compound No. 2, N-(2-nitrobenzoyl)-N'-[4-(5-chloro-2-pyrimidinyloxy)-3-nitrophenyl]urea]",LD50,"Acute toxicity, LD50",≥ 100 mg/kg
same,ILS (increase life span),p-388 leukemia cells [2]; 200 mg/kg/day,90%
same,ILS (increase life span),p-388 leukemia cells [2]; 400 mg/kg/day,108%
same,ILS at 50 mg/kg/day,p-388 leukemia cells [1]; [3],134%
"O=C(NC(=O)c1ccccc1[N+](=O)[O-])Nc1ccc(Oc2ncc(Br)cn2)c([N+](=O)[O-])c1 [Compound No. 3, N-(2-nitrobenzoyl)-N'-[4-(5-bromo-2-pyrimidinyloxy)-3-nitrophenyl]urea]",LD50,"Acute toxicity, LD50",≥ 100 mg/kg
same,ILS (increase life span),p-388 leukemia cells [2]; 200 mg/kg/day,39%
same,ILS (increase life span),p-388 leukemia cells [2]; 400 mg/kg/day,46%
same,ILS at 50 mg/kg/day,p-388 leukemia cells [1]; [3],120%
"O=C(NC(=O)c1ccccc1Cl)Nc1ccc(Oc2ncc(Cl)cn2)c([N+](=O)[O-])c1 [Compound No. 4, N-(2-chlorobenzoyl)-N'-[4-(5-chloro-2-pyrimidinyloxy)-3-nitrophenyl]urea]",LD50,"Acute toxicity, LD50",≥ 100 mg/kg
same,ILS at 100 mg/kg/day,p-388 leukemia cells [1]; [3],102%
"O=C(NC(=O)c1ccc(Cl)cc1[N+](=O)[O-])Nc1ccc(Oc2ncc(Cl)cn2)c([N+](=O)[O-])c1 [Compound No. 6, N-(4-chloro-2-nitrobenzoyl)-N'-[4-(5-chloro-2-pyrimidinyloxy)-3-nitrophenyl]urea]",LD50,"Acute toxicity, LD50",≥ 50 mg/kg
same,ILS at 25 mg/kg/day,p-388 leukemia cells [1]; [3],165%
"O=C(NC(=O)c1ccccc1[N+](=O)[O-])Nc1ccc(Oc2ccc(Br)nn2)c([N+](=O)[O-])c1 [Compound No. 7, N-(2-nitrobenzoyl)-N'-[4-(6-bromo-3-pyridazinyloxy)-3-nitrophenyl]urea]",LD50,"Acute toxicity, LD50",≥ 100 mg/kg
same,ILS at 100 mg/kg/day,p-388 leukemia cells [1]; [3],152%
"O=C(NC(=O)c1ccccc1[N+](=O)[O-])Nc1ccc(Oc2ccc(C(F)(F)F)cn2)c([N+](=O)[O-])c1 [Compound No. 9, N-(2-nitrobenzoyl)-N'-[4-(5-trifluoromethyl-2-pyridyloxy)-3-nitrophenyl]urea]",LD50,"Acute toxicity, LD50",≥ 100 mg/kg
same,ILS at 100 mg/kg/day,p-388 leukemia cells [1]; [3],119%
"O=C(NC(=O)c1ccccc1[N+](=O)[O-])Nc1ccc(Oc2ccc(Cl)cn2)c([N+](=O)[O-])c1 [Compound No. 10, N-(2-nitrobenzoyl)-N'-[4-(5-chloro-2-pyridyloxy)-3nitrophenyl]urea]",LD50,"Acute toxicity, LD50",≥ 100 mg/kg
same,ILS at 100 mg/kg/day,p-388 leukemia cells [1]; [3],153%
"O=C(NC(=O)c1ccccc1[N+](=O)[O-])Nc1ccc(Oc2ncc(I)cn2)c(Cl)c1 [compound 7, N--(2nitrobenzoyl)-N'--[3chloro-4-(5-iodo-2-pyrimidinyloxy)phenyl]urea]",ILS (increase life span),p-388 leukemia cells [2]; 1600 mg/kg/day,41%

# From patent US4677111A, “N-benzoyl-N'-(3-nitrophenyl) urea compounds, and antitumorous compositions containing them” (Ishihara Sangyo Kaisha Ltd., priority 1984, dated 1987)
